From ChEMBL document CHEMBL5241130, “Integrating a phenotypic screening with a structural simplification strategy to identify 4-phenoxy-quinoline derivatives to potently disrupt the mitotic localization of Aurora kinase B” (Bioorg Med Chem, 2023)

Experiments:
Assay type in all cases: cell-based
[1] = target: Aurora kinase B (Homo sapiens) (UniProt Q96GD4); assay: Disruption of mitotic localization of AURKB in human RPE-MYC H2B-GFP cells assessed as mitotic index at 40 uM measured after 6 hrs by fluorescence high content cell imaging analysis (reference value: 4.7+/-0.4%)
[2] = target: Aurora kinase B (Homo sapiens) (UniProt Q96GD4); assay: Disruption of mitotic localization of AURKB in human RPE-MYC H2B-GFP cells assessed as induction of mitotic arrest measured after 24 hrs by fluorescence high content cell imaging analysis
[3] = target: Aurora kinase B (Homo sapiens) (UniProt Q96GD4); assay: Disruption of mitotic localization of AURKB in human RPE-MYC H2B-GFP cells assessed as mitotic index at 10 uM measured after 6 hrs by fluorescence high content cell imaging analysis (reference value: 4.7+/-0.4%)
[4] = target: Aurora kinase B (Homo sapiens) (UniProt Q96GD4); assay: Disruption of mitotic localization of AURKB in human RPE-MYC H2B-GFP cells assessed as induction of polyploidy by fluorescence high content cell imaging analysis
[5] = target: Aurora kinase B (Homo sapiens) (UniProt Q96GD4); assay: Disruption of mitotic localization of AURKB in human RPE-MYC H2B-GFP cells assessed as proportion of polyploid cells in fully attached cell population at 20 uM measured after 72 hrs by fluorescence high content cell imaging analysis (Rvb <1%)
[6] = target: Aurora kinase B (Homo sapiens) (UniProt Q96GD4); assay: Disruption of mitotic localization of AURKB in human RPE-MYC H2B-GFP cells assessed as proportion of polyploid cells in fully attached cell population at 10 uM measured after 72 hrs by fluorescence high content cell imaging analysis (Rvb <1%)
[7] = target: T1, Aurora kinase A (Homo sapiens) (UniProt O14965); assay: Inhibition of AURKA in human RPE-MYC H2B-GFP cells assessed as inhibition of autophosphorylation of AURKA at Thr288 residue by measuring residual enzyme activity at 20 uM measured after 6 hrs by immunofluorescence staining analysis (reference value: 100 +/-1%)
T1 sequence (whole entry): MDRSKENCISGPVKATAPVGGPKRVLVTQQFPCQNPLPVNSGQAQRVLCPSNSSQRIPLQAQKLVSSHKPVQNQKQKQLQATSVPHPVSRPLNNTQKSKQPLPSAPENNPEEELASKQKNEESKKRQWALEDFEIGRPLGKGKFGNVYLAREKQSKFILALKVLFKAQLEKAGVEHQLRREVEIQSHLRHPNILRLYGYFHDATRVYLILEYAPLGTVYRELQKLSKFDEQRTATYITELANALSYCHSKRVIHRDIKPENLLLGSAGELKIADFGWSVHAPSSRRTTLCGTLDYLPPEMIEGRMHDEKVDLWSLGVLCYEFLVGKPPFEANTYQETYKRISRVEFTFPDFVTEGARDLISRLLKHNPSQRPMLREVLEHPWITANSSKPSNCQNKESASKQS

[8] = target: T1, Aurora kinase A (Homo sapiens); assay: Inhibition of AURKA in human RPE-MYC H2B-GFP cells assessed as inhibition of autophosphorylation of AURKA at Thr288 residue by measuring residual enzyme activity at 10 uM measured after 6 hrs by immunofluorescence staining analysis (reference value: 100 +/-1%)
[9] = target: Aurora kinase B (Homo sapiens) (UniProt Q96GD4); assay: Disruption of mitotic localization of AURKB in human RPE-MYC H2B-GFP cells assessed as mitotic index at 20 uM measured after 6 hrs by fluorescence high content cell imaging analysis (reference value: 4.7+/-0.4%)
[10] = target: Aurora kinase B (Homo sapiens) (UniProt Q96GD4); assay: Inhibition of AURKB in human RPE-MYC H2B-GFP cells assessed as inhibition of histone H3 phosphorylation at Ser10 residue by measuring residual enzyme activity at 10 uM measured after 6 hrs by immunofluorescence staining analysis (reference value: 100 +/-9%)
[11] = target: Aurora kinase B (Homo sapiens) (UniProt Q96GD4); assay: Inhibition of AURKB in human RPE-MYC H2B-GFP cells assessed as inhibition of histone H3 phosphorylation at Ser10 residue by measuring residual enzyme activity at 20 uM measured after 6 hrs by immunofluorescence staining analysis (reference value: 100 +/-9%)
[12] = target: T1, Aurora kinase A (Homo sapiens); assay: Inhibition of AURKA in human RPE-MYC H2B-GFP cells assessed as inhibition of autophosphorylation of AURKA at Thr288 residue by measuring residual enzyme activity at 40 uM measured after 6 hrs by immunofluorescence staining analysis (reference value: 100+/-1%)
[13] = target: Aurora kinase B (Homo sapiens) (UniProt Q96GD4); assay: Inhibition of AURKB in human RPE-MYC H2B-GFP cells assessed as inhibition of histone H3 phosphorylation at Ser10 residue by measuring residual enzyme activity at 40 uM measured after 6 hrs by immunofluorescence staining analysis (reference value: 100 +/-9%)
[14] = target: Aurora kinase B (Homo sapiens) (UniProt Q96GD4); assay: Disruption of mitotic localization of AURKB in human RPE-MYC H2B-GFP cells assessed as proportion of polyploid cells in fully attached cell population at 40 uM measured after 72 hrs by fluorescence high content cell imaging analysis (Rvb <1%)

Aurora kinase B (Homo sapiens), sequence (Q96GD4 whole entry): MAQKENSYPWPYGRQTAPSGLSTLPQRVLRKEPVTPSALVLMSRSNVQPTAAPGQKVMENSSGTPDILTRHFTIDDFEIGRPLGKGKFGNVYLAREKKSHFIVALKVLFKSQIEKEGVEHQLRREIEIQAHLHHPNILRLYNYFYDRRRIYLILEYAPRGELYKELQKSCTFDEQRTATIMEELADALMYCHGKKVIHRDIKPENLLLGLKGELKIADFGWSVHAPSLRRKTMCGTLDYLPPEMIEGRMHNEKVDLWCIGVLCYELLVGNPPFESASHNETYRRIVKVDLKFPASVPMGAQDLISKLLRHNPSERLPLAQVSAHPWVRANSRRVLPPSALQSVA

- Activity [1]: 15.6%
- MEC [2]: 10 µM
- Activity [3]: 15.6%
- MEC [4]: 10 µM
- Activity [5]: 100%
- Activity [6]: 100%
- Activity [7]: 109%
- Activity [8]: 106%
- Activity [9]: 16.2%
- Activity [10]: 104%
- Activity [11]: 102%
- Activity [12]: 115%
- Activity [13]: 105%
- Activity [14]: 100%
SMILES: Nc1ccc(Oc2ccnc3ccccc23)cc1
